The values below come from patent US20240025856A1, “1,2,3,4-TETRAHYDROQUINOLINE DERIVATIVES AS INHIBITORS OF THE YAP/TAZ-TEAD ACTIVATION FOR TREATING CANCER” (KATHOLIEKE UNIVERSITEIT LEUVEN, priority 2020, published 2024).

Holding throughout (format): cell-based
For test [1], the system named is YAP/TAZ-TEAD transcription. Kind of test: Reporter gene assay for measuring the inhibition of YAP/TAZ-TEAD transcription (TEAD-responsive element luciferase reporter in Hek293T cells). To be noted: Hek293T cells transiently transfected with TEAD-responsive element luciferase reporter, 24 hours incubation. The method in brief:
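Readout is SteadyLite luciferase luminescence from a TEAD-responsive element reporter transiently transfected into Hek293T cells, exposed to compounds for 24 h at 37 °C/5% CO2. IC50 derived from percent inhibition, scaled between vehicle basal activity (0%) and positive control inhibitor (100%).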

In test [2] the test system is NCI-1H2052. Kind of test: Mesothelioma cell line proliferation assay, H2052 (ATPlite). To be noted: Homo sapiens, NCI-H2052, 144 h, 6 days with compound, read-out: H2025 (EC50). The protocol: (§1) Mesothelioma cell lines, NCI-1H226 and NCI-1H2052 (all sourced from the ATCC cell culture collection) are plated in 96-well plates (Corning® 96 Well White Polystyrene Microplate clear flat bottom, white polystyrene (TC-Treated)), at 1500 cells/well in full medium (RPMI 1640 ATCC modification with L-glutamine, HEPES, Phenol Red, Sodium Pyruvate, High glucose, Low sodium bicarbonate and 10% fetal bovine serum). Cells are incubated overnight at 37° C. in an incubator with 5% C02. Then compounds, dissolved in DMSO, are added in dose-response. Cells are incubated with compound dilutions for another 6 days at 37° C. in an incubator with 5% C02. Cell viability is quantitated using the ATPlite kit (Perkin-Elmer) and the luminescence is read-out using an Envision instrument (Perkin-Elmer). The amount of relative light units produced using the ATPlite kit is used to calculated percent of inhibition.
(§2) The activities of some example compounds are depicted in the table below. The activity ranges A, B and C refer to EC50 values in the mesothelioma cell line proliferation assay as described as follows: “A”: EC50<1 μM; “B”: 1 μM s EC50≤10 μM and “C”: EC50≥10 μM; NT: not tested.
A general note: ATP-based viability assays read luminescence as a measure of living cells.

Test [3] concerns NCI-1H226. Kind of test: Mesothelioma cell line proliferation assay, H226 (ATPlite). To be noted: Homo sapiens, NCI-H226, 144 h, 6 days with compound. The method, then: as §1, §2

In general, IC50 refers to the concentration that inhibits the measured activity by half. A word on the EC50: it is the concentration needed to bring the measured effect to its halfway point. Consider `FC(F)(F)c1ccc(N2CC(C3CC(Br)=NO3)Cc3ccccc32)cc1` (single isomer, unassigned) [Cpd. No. 194(Dia1)-En1, 3-bromo-5-(1-(4-(trifluoromethyl)phenyl)-1,2,3,4-tetrahydroquinolin-3-yl)-4,5-dihydroisoxazole], for which, in test [1], the IC50 is less than 1000 nM. The EC50 in test [2] and in test [3] was less than 1000 nM in each case.

In turn, `C=CC(=O)NC1Cc2nc(N)ccc2N(c2ccc(C(F)(F)F)cc2)C1` (centres unmarked) [Cpd. No. 140, N-(6-amino-1-(4-(trifluoromethyl)phenyl)-1,2,3,4-tetrahydro-1,5-naphthyridin-3-yl)acrylamide] showed an IC50 in test [1] (Homo sapiens, HEK-293T, 24 h) of less than 1000 nM. In addition, the EC50 in test [2] and in test [3] was less than 1000 nM throughout.

In the case of `C=CC(=O)NCC1Cc2c(N)cccc2N(c2ccc(C(F)(F)F)cc2)C1` (centres unmarked) [Cpd. No. 153, N-((5-amino-1-(4-(trifluoromethyl)phenyl)-1,2,3,4-tetrahydroquinolin-3-yl)methyl)acrylamide], the IC50 in test [1] (Homo sapiens, HEK-293T, 24 h) is less than 1000 nM. The EC50 in test [2] and in test [3] was less than 1000 nM throughout.

For `CC(=O)NCC1Cc2c(C#N)cccc2N(c2ccc(C(F)(F)F)cc2)C1` (centres unmarked) [Cpd. No. 154, N-((5-cyano-1-(4-(trifluoromethyl)phenyl)-1,2,3,4-tetrahydroquinolin-3-yl)methyl)acetamide], in test [1] (Homo sapiens, HEK-293T, 24 h), the IC50 was less than 1000 nM. Moreover, the EC50 in test [2] was 1000 to 10000 nM; in test [3], less than 1000 nM.

`C=CC(=O)NCC1Cc2c(CC#N)cccc2N(c2ccc(C(F)(F)F)cc2)C1` (centres unmarked) [Cpd. No. 163, N-((5-(cyanomethyl)-1-(4-(trifluoromethyl)phenyl)-1,2,3,4-tetrahydroquinolin-3-yl)methyl)acrylamide]: the IC50 in test [1] (Homo sapiens, HEK-293T, 24 h) is less than 1000 nM. In addition, the EC50 in test [2] and in test [3] was less than 1000 nM throughout.

Regarding `C=CC(=O)NC(C)C1Cc2ccccc2N(c2ccc(C(F)(F)F)cc2)C1` (centres unmarked) [Cpd. No. 192, N-(1-(1-(4-(trifluoromethyl)phenyl)-1,2,3,4-tetrahydroquinolin-3-yl)ethyl)acrylamide], the IC50 in test [1] (Homo sapiens, HEK-293T, 24 h) was less than 1000 nM. Moreover, the EC50 in test [2] and in test [3] was less than 1000 nM in each case.

Take `FC(F)(F)c1ccc(N2CC(C3CC(Br)=NO3)Cc3ccccc32)cc1` (centres unmarked) [Cpd. No. 194, 3-bromo-5-(1-(4-(trifluoromethyl)phenyl)-1,2,3,4-tetrahydroquinolin-3-yl)-4,5-dihydroisoxazole]: the IC50 in test [1] (Homo sapiens, HEK-293T, 24 h) is less than 1000 nM. Further, the EC50 in test [2] was not below 10000 nM; in test [3], less than 1000 nM.

With `C=CC(=O)NC1Cc2ccccc2N(c2ccc(C(F)(F)F)c(F)c2)C1` (centres unmarked) [compound 028, N-(1-(3-fluoro-4-(trifluoromethyl)phenyl)-1,2,3,4-tetrahydroquinolin-3-yl)acrylamide], in test [1] (Homo sapiens, HEK-293T, 24 h), the IC50 was less than 1000 nM. Also, the half-maximal effective concentration (EC50) in test [2] and in test [3] was less than 1000 nM in each case.

Consider `C=CC(=O)NC1Cc2ccccc2N(c2ccc(C(F)(F)F)cc2F)C1` (centres unmarked) [compound 029, N-(1-(2-fluoro-4-(trifluoromethyl)phenyl)-1,2,3,4-tetrahydroquinolin-3-yl)acrylamide], for which the IC50 in test [1] (Homo sapiens, HEK-293T, 24 h) is less than 1000 nM. In addition, the EC50 in test [2] and in test [3] was less than 1000 nM throughout.

Turning to `C=C(F)C(=O)NC1Cc2ccccc2N(c2ccc(C(F)(F)F)cc2)C1` (centres unmarked) [compound 039, 2-fluoro-N-(1-(4-(trifluoromethyl)phenyl)-1,2,3,4-tetrahydroquinolin-3-yl)acrylamide], the IC50 in test [1] (Homo sapiens, HEK-293T, 24 h) is less than 1000 nM. Further, the EC50 in test [2] and in test [3] was less than 1000 nM in each case.

Take `C=CC(=O)NC1Cc2c(F)cccc2N(c2ccc(C(F)(F)F)cc2)C1` (centres unmarked) [compound 060, N-(5-fluoro-1-(4-(trifluoromethyl)phenyl)-1,2,3,4-tetrahydroquinolin-3-yl)acrylamide]: the concentration for half-maximal inhibition (IC50) in test [1] (Homo sapiens, HEK-293T, 24 h) was less than 1000 nM. The EC50 in test [2] and in test [3] was less than 1000 nM in each case.

Turning to `C=CC(=O)NC1Cc2c(N)cccc2N(c2ccc(C(F)(F)F)cc2)C1` (centres unmarked) [compound 075, N-(5-amino-1-(4-(trifluoromethyl)phenyl)-1,2,3,4-tetrahydroquinolin-3-yl)acrylamide], the IC50 in test [1] (Homo sapiens, HEK-293T, 24 h) is less than 1000 nM. Further, the EC50 in test [2] and in test [3] was less than 1000 nM throughout.

With `C=CC(=O)NC1Cc2c(NCCOC)cccc2N(c2ccc(C(F)(F)F)cc2)C1` (centres unmarked) [compound 077, N-(5-((2-methoxyethyl)amino)-1-(4-(trifluoromethyl)phenyl)-1,2,3,4-tetrahydroquinolin-3-yl)acrylamide], the 50% inhibitory concentration (IC50) in test [1] (Homo sapiens, HEK-293T, 24 h) is less than 1000 nM. For the same compound, the concentration for a half-maximal effect (EC50) in test [2] and in test [3] was less than 1000 nM throughout.

For the compound `C=CC(=O)NC1Cc2c(C#N)cccc2N(c2ccc(C(F)(F)F)cc2)C1` (centres unmarked) [compound 078, N-(5-cyano-1-(4-(trifluoromethyl)phenyl)-1,2,3,4-tetrahydroquinolin-3-yl)acrylamide], in test [1] (Homo sapiens, HEK-293T, 24 h), the IC50 was less than 1000 nM. For the same compound, the EC50 in test [2] and in test [3] was less than 1000 nM throughout.

In test [1] (Homo sapiens, HEK-293T, 24 h), `C=CC(=O)NC1Cc2ncccc2N(c2ccc(C(F)(F)F)cc2)C1` (centres unmarked) [compound 080, N-(1-(4-(trifluoromethyl)phenyl)-1,2,3,4-tetrahydro-1,5-naphthyridin-3-yl)acrylamide] displayed an IC50 of less than 1000 nM. The EC50 in test [2] and in test [3] was less than 1000 nM each time.

Regarding `C=CC(=O)NC1Cc2cccnc2N(c2ccc(C(F)(F)F)cc2)C1` (centres unmarked) [compound 081, N-(1-(4-(trifluoromethyl)phenyl)-1,2,3,4-tetrahydro-1,8-naphthyridin-3-yl)acrylamide], in test [1] (Homo sapiens, HEK-293T, 24 h), the IC50 was less than 1000 nM. The EC50 in test [2] and in test [3] was less than 1000 nM throughout.

Regarding `C=CC(=O)NC1Cc2ccncc2N(c2ccc(C(F)(F)F)cc2)C1` (centres unmarked) [compound 083, N-(1-(4-(trifluoromethyl)phenyl)-1,2,3,4-tetrahydro-1,7-naphthyridin-3-yl)acrylamide], the IC50 in test [1] (Homo sapiens, HEK-293T, 24 h) is less than 1000 nM. For the same compound, the EC50 in test [2] and in test [3] was less than 1000 nM each time.

In the case of `C=CC(=O)NC1Cc2c(CO)cccc2N(c2ccc(C(F)(F)F)cc2)C1` (centres unmarked) [compound 139, N-(5-(hydroxymethyl)-1-(4-(trifluoromethyl)phenyl)-1,2,3,4-tetrahydroquinolin-3-yl)acrylamide], in test [1] (Homo sapiens, HEK-293T, 24 h), the IC50 was less than 1000 nM. The EC50 in test [2] and in test [3] was less than 1000 nM each time.

In test [1] (Homo sapiens, HEK-293T, 24 h), `C=CC(=O)NC1Cc2ccccc2N(c2ccc(C#N)cc2)C1` (centres unmarked) [compound 142, N-(1-(4-cyanophenyl)-1,2,3,4-tetrahydroquinolin-3-yl)acrylamide] registered an IC50 of less than 1000 nM. Besides, the EC50 in test [2] and in test [3] was less than 1000 nM each time.

`C=CC(=O)NCC1Cc2ccccc2N([C@H]2CC[C@H](C(F)(F)F)CC2)C1` (stereo partly drawn) [compound 143, trans-N-((1-(4-(trifluoromethyl)cyclohexyl)-1,2,3,4-tetrahydroquinolin-3-yl)methyl)acrylamide] returned an IC50 in test [1] (Homo sapiens, HEK-293T, 24 h) of less than 1000 nM. The EC50 in test [2] and in test [3] was less than 1000 nM in each case.

For `C=CC(=O)NCC1Cc2ccccc2N(c2ccc(C#N)cc2)C1` (centres unmarked) [compound 147, N-((1-(4-cyanophenyl)-1,2,3,4-tetrahydroquinolin-3-yl)methyl)acrylamide], the IC50 in test [1] (Homo sapiens, HEK-293T, 24 h) is less than 1000 nM. The EC50 in test [2] and in test [3] was less than 1000 nM each time.

Turning to `C=CC(=O)NCC1Cc2ccccc2N(c2ccc(C(F)F)nc2)C1` (centres unmarked) [compound 149, N-((1-(6-(difluoromethyl)pyridin-3-yl)-1,2,3,4-tetrahydroquinolin-3-yl)methyl)acrylamide], the IC50 in test [1] (Homo sapiens, HEK-293T, 24 h) is less than 1000 nM. Further, the EC50 in test [2] and in test [3] was 1000 to 10000 nM each time.

Turning to `CC(=O)NCC1Cc2c(N)cccc2N(c2ccc(C(F)(F)F)cc2)C1` (centres unmarked) [compound 150, N-((5-amino-1-(4-(trifluoromethyl)phenyl)-1,2,3,4-tetrahydroquinolin-3-yl)methyl)acetamide], the concentration for half-maximal inhibition (IC50) in test [1] (Homo sapiens, HEK-293T, 24 h) is less than 1000 nM. The EC50 in test [2] and in test [3] was less than 1000 nM each time.

For the compound `C=CC(=O)NC1Cc2c(CC#N)cccc2N(c2ccc(C(F)(F)F)cc2)C1` (centres unmarked) [compound 164, N-(5-(cyanomethyl)-1-(4-(trifluoromethyl)phenyl)-1,2,3,4-tetrahydroquinolin-3-yl)acrylamide], the IC50 in test [1] (Homo sapiens, HEK-293T, 24 h) is less than 1000 nM. The EC50 in test [2] and in test [3] was less than 1000 nM throughout.

Turning to `C=CC(=O)NCC1Cc2ccccc2N(Cc2ccc(C(F)(F)F)cc2)C1` (centres unmarked) [compound 184, N-((1-(4-(trifluoromethyl)benzyl)-1,2,3,4-tetrahydroquinolin-3-yl)methyl)acrylamide], the IC50 in test [1] (Homo sapiens, HEK-293T, 24 h) was less than 1000 nM. Moreover, the EC50 in test [3] was less than 1000 nM.
